Test results taken from PubChem BioAssay (NCI).
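Growth conditions: 96-well plates. Treatment: test compound, 48 hours, 5 concentrations. Analysis: linear interpolation between bracketing concentrations; unreached endpoints set to highest concentration. TGI marks complete inhibition of growth.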

Assays:
Experiment in all cases: NCI anticancer screen, dose series, 48 h
OVCAR-8 ovarian = test system: OVCAR-8 ovarian
CAKI-1 renal = test system: CAKI-1 renal
NCI-H522 lung = test system: NCI-H522 lung
XF 498 CNS = test system: XF 498 CNS
HOP-62 NSCLC = test system: HOP-62 NSCLC
IGROV1 ovarian = test system: IGROV1 ovarian
KM12 colon = test system: KM12 colon
MOLT-4 leukemia = test system: MOLT-4 leukemia
NCI-H460 lung = test system: NCI-H460 lung
OVCAR-3 ovarian = test system: OVCAR-3 ovarian
SF-268 CNS = test system: SF-268 CNS
OVCAR-5 ovarian = test system: OVCAR-5 ovarian
ACHN renal = test system: ACHN renal
SF-539 CNS = test system: SF-539 CNS
NCI-H226 lung = test system: NCI-H226 lung
NCI-H23 lung = test system: NCI-H23 lung
SW-620 colon = test system: SW-620 colon
CCRF-CEM leukemia = test system: CCRF-CEM leukemia
EKVX NSCLC = test system: EKVX NSCLC
RXF-631 renal = test system: RXF-631 renal
SF-295 CNS = test system: SF-295 CNS
SK-MEL-28 melanoma = test system: SK-MEL-28 melanoma
TK-10 renal = test system: TK-10 renal
LOX IMVI melanoma = test system: LOX IMVI melanoma
KM20L2 colon = test system: KM20L2 colon
OVCAR-4 ovarian = test system: OVCAR-4 ovarian
LXFL 529 NSCLC = test system: LXFL 529 NSCLC
786-0 renal = test system: 786-0 renal
U251 CNS = test system: U251 CNS
K-562 leukemia = test system: K-562 leukemia
MALME-3M melanoma = test system: MALME-3M melanoma
HL-60(TB) leukemia = test system: HL-60(TB) leukemia
A549 NSCLC = test system: A549 NSCLC
HCT-116 colon = test system: HCT-116 colon
DLD-1 colon = test system: DLD-1 colon
COLO 205 colon = test system: COLO 205 colon
SK-OV-3 ovarian = test system: SK-OV-3 ovarian
M14 melanoma = test system: M14 melanoma
UACC-62 melanoma = test system: UACC-62 melanoma
HCC-2998 colon = test system: HCC-2998 colon
RXF 393 renal = test system: RXF 393 renal
SNB-19 CNS = test system: SNB-19 CNS
SR leukemia = test system: SR leukemia
HCT-15 colon = test system: HCT-15 colon
SK-MEL-2 melanoma = test system: SK-MEL-2 melanoma
UO-31 renal = test system: UO-31 renal
DMS 273 small cell lung = test system: DMS 273 small cell lung
M19-MEL melanoma = test system: M19-MEL melanoma
DMS 114 small cell lung = test system: DMS 114 small cell lung
UACC-257 melanoma = test system: UACC-257 melanoma
SN12C renal = test system: SN12C renal
HT29 colon = test system: HT29 colon
SNB-75 CNS = test system: SNB-75 CNS
SK-MEL-5 melanoma = test system: SK-MEL-5 melanoma
HOP-92 NSCLC = test system: HOP-92 NSCLC
RPMI-8226 leukemia = test system: RPMI-8226 leukemia
A498 renal = test system: A498 renal
SNB-78 CNS = test system: SNB-78 CNS

Measured: TGI

Cc1nc(-c2nc(C)c(C(=O)/C=C/c3ccc(N(C)C)cc3)s2)sc1C(=O)/C=C/c1ccc(N(C)C)cc1
44.6 µM: XF 498 CNS
89.2 µM: NCI-H522 lung
58 µM: UACC-62 melanoma
not listed: HT29 colon | SNB-75 CNS | SK-MEL-5 melanoma | HOP-92 NSCLC | RPMI-8226 leukemia | A498 renal | SNB-78 CNS
> 100 µM: all other assays above

Cc1cc2c(c(C(N)=O)c1C)-c1cccc(Cl)c1C2=O
not listed: CAKI-1 renal | NCI-H226 lung | RXF 393 renal | SR leukemia | M19-MEL melanoma
> 100 µM: all other assays above
